Results taken from patent US7674795B2, “Fluorene derivatives, composition containing said derivatives and the use thereof” (Aventis Pharma SA, priority 2005, dated 2010).
Where a name gives a salt, the structure may show the parent alone.

Target: Hsp82 (Saccharomyces cerevisiae, UniProt P02829)
Assay: PK/LDH enzyme coupling test of the ATPase activity of Hsp82 (NADH decrease at 340 nm)
Type: biochemical
Conditions: 1 μM Hsp82, 250 μM ATP, 37° C., pyruvate kinase/lactate dehydrogenase coupling, read-out: Hsp82 ATPase IC50
Source text: The formation of ADP due to the ATPase activity of Hsp82 was utilized for developing another method of evaluating the enzymatic activity of this enzyme by application of an enzyme coupling system employing pyruvate kinase (PK) and lactate dehydrogenase (LDH). In this spectrophotometric method of the kinetic type, the PK catalyses the formation of ATP and of pyruvate starting from phosphoenol-pyruvate (PEP) and the ADP produced by HSP82. The pyruvate that formed, an LDH substrate, is then converted to lactate in the presence of NADH. In this case, the decrease in the concentration of NADH, measured by the decrease in absorbance at wavelength of 340 nm, is proportional to the concentration of ADP produced by HSP82. […] This mixture is preincubated at 37° C. for 30 min before adding 3.77 units of LDH and 3.77 units of PK. The reaction is started by adding the product to be evaluated, in variable concentrations, and of Hsp82, at a concentration of 1 μM. The enzymatic activity of Hsp82 is then measured continuously in a microplate reader at 37° C., at wavelength of 340 nm. The initial reaction rate is found by measuring the slope of the tangent at the origin of the recorded curve. The enzymatic activity is expressed as μM of ADP formed per minute. The effect of the various products tested is expressed as percentage of inhibition of ATPase activity, using the following codes: • A: […]

Hsp82, sequence (P02829 whole entry): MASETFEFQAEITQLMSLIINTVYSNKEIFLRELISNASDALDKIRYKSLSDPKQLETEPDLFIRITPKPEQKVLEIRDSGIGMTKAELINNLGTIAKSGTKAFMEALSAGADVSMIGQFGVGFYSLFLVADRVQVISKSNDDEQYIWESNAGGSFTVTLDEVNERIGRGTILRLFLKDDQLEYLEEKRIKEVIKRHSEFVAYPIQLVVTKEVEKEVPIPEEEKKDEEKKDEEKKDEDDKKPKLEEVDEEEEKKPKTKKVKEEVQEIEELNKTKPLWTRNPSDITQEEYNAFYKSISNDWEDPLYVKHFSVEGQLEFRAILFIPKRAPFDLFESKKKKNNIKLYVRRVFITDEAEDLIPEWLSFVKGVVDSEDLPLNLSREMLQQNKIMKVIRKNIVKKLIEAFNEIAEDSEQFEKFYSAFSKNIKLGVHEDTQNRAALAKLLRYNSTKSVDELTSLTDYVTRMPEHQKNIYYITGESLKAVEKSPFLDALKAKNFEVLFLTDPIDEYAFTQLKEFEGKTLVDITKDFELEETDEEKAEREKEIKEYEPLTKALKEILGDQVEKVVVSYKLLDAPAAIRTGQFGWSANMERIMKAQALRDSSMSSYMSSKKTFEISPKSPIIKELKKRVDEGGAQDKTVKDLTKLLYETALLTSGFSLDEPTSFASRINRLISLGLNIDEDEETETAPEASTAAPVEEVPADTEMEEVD

| IC50 [µM] | Structure (SMILES) |
| --- | --- |
| 1 to 10 | O=C(NC1c2ccccc2-c2c(-c3nc4ccc(F)cc4[nH]3)cccc21)c1cccc2ncccc12 (racemic) [Example 84, [4-(6-fluoro-1H-benzimidazol-2-yl)-9H-fluoren-9(R,S)-yl]amide of quinoline-5-carboxylic acid] |
| 1 to 10 | COc1ccc2nc(-c3cccc4c3-c3ccccc3C4NC(=O)c3ccncc3)[nH]c2c1 (racemic) [Example 106, N-[4-(6-methoxy-1H-benzimidazol-2-yl)-9H-fluoren-9(R,S)-yl]-isonicotinamide] |
| 1 to 10 | O=C(NC1c2ccccc2-c2c(-c3nc4ccncc4[nH]3)cccc21)c1ccc2[nH]ncc2c1 (racemic) [Example 45, [4-(3H-imidazo[4,5-c]pyridin-2-yl)-9H-fluoren-9(R,S)-yl]amide of 1H-indazole-5-carboxylic acid] |
| 10 to 100 | Nc1cccc(C(=O)NC2c3ccccc3-c3c(-c4nc5ccncc5[nH]4)cccc32)c1 (racemic) [Example 115, 3-amino-N-[4-(3H-imidazo[4,5-c]pyridin-2-yl)-9H-fluoren-9(R,S)-yl]-benzamide] |
| 1 to 10 | O=C(NC1c2ccccc2-c2c(-c3nc4ccncc4[nH]3)cccc21)c1ccnc(N2CCCC2)c1 (racemic) [Example 120, N-[4-(3H-imidazo[4,5-c]pyridin-2-yl)-9H-fluoren-9(R,S)-yl]-2-pyrrolidin-1-yl-isonicotinamide] |
| 1 to 10 | O=C(NC1c2ccccc2-c2c(-c3nc4ccncc4[nH]3)cccc21)c1ccnc2ncccc12 (racemic) [Example 97, hydrochloride of [4-(3H-imidazo[4,5-c]pyridin-2-yl)-9H-fluoren(R,S)-9-yl]amide of 1,8-naphthyridine-4-carboxylic acid] |
| 1 to 10 | N#Cc1cc(C(=O)NC2c3ccccc3-c3c(-c4nc5ccncc5[nH]4)cccc32)ccn1 (racemic) [Example 105, 2-cyano-N-[4-(3H-imidazo[4,5-c]pyridin-2-yl)-9H-fluoren-9(R,S)-yl]-isonicotinamide] |
| 1 to 10 | O=C(NC1c2ccccc2-c2c(-c3nc4ccncc4[nH]3)cccc21)c1ccnc(F)c1 (racemic) [Example 95, 2-fluoro-N-[4-(3H-imidazo[4,5-c]pyridin-2-yl)-9H-fluoren-9(R,S)-yl]-isonicotinamide] |
| 1 to 10 | NC(=O)C[C@H](N)C(=O)NC1c2ccccc2-c2c(-c3nc4cnccc4[nH]3)cccc21 (stereo partly drawn) [Example 63, hydrochloride of (S)-2-amino-N1-[4-(3H-imidazo[4,5-c]pyridin-2-yl)-9H-fluoren-9(R,S)-yl]-succinamide] |
| 1 to 10 | CCOC(=O)CCNC(=O)NC1c2ccccc2-c2c(-c3nc4ccncc4[nH]3)cccc21 (racemic) [Example 77, ethyl ester of 3-{3-[4-(3H-imidazo[4,5-c]pyridin-2-yl)-9H-fluoren-9(R,S)-yl]-ureido}-propionic acid] |
| 1 to 10 | CC(=O)NC1c2ccccc2-c2c(-c3nc4ccncc4[nH]3)cccc21 (racemic) [Example 72, N-[4-(3H-imidazo[4,5-c]pyridin-2-yl)-9H-fluoren-9(R,S)-yl]-acetamide] |
| < 1 | S=C(NC1c2ccccc2-c2c(-c3nc4cnccc4[nH]3)cccc21)c1cccc2ncccc12 (racemic) [Example 55, [4-(3H-imidazo[4,5-c]pyridin-2-yl)-9H-fluoren-9(R,S)-yl]amide trifluoroacetate of quinoline-5-carbothioic acid] |
| 10 to 100 | CCOC(=O)CNC(=O)NC1c2ccccc2-c2c(-c3nc4ccncc4[nH]3)cccc21 (racemic) [Example 78, ethyl ester of {3-[4-(3H-imidazo[4,5-c]pyridin-2-yl)-9H-fluoren-9(R,S)-yl]-ureido}-acetic acid] |
| 1 to 10 | O=C(NC1c2ccccc2-c2c(-c3nc4ccncc4[nH]3)cccc21)c1cccc2cc(O)ccc12 (racemic) [Example 34, hydrochloride of [4-(3H-imidazo[4,5-c]pyridin-2-yl)-9H-fluoren-9(R,S)-yl]amide of 6-hydroxy-naphthalene-1-carboxylic acid] |
